US6515012B2, “Process for the preparation of zofenopril calcium salt” (Menarini Ricerche S.p.A., priority 1998, dated 2003)
Structures can show the parent of a compound that is named as a salt.

Tests used:
[1] = resistance to compression and/or micronisation; assay type: physicochemical; conditions: polymorph A compared with polymorph B
[2] = tablets prepared with polymorph A or with polymorph B; J. Pharmaceutical & Biomedical Analysis, 1994, Vol 12, pp. 173-177; cited from earlier work
[3] = Stability to micronisation of Polymorphs (grinding in ball microniser, DRX); assay type: physicochemical; conditions: Retsch MM2 ball microniser, 200 mg sample, 80 vibrations/min, 15 minutes
[4] = storage stability of zofenopril calcium salt samples (interconversion to polymorph B, by DRX); assay type: physicochemical
Source text: Determination of polymorph B in the samples of Polymoroh A : The percentage of polymorph B in samples of Polymorph A can easily be evaluated by observation of the X diffractograms (DRX). The region used for the analysis was that for 2θ ranging from 15 to 25. In this region, three peaks were evidenced, respectively I with […], II with 2θ=19.2 and III with 20θ=19.9, and the relative intensities I/III and II/III of various Polymorph A samples containing known amounts of Polymorph B (not above 30%) were measured. A regression equation was thereby obtained, which correlates the intensities of peaks I and II relating to peak III with the percentage of polymorph B present in the samples. The precision and the accuracy of the results obtainable with the above mentioned equation were good and, based on the confidence limits, the minimum amount of polymorph B detectable in polymorph A could be evaluated to be <7%. FIG. 4 reports the relationship between the above mentioned values based on the thus calculated regression equation and the observed values.

| Compound | resistance to compression and/or micronisation [1] | dissolution rate of tablets [2] | crystalline structure after grinding, according to DRX [3] | interconversion to polymorph B ([4]; samples obtained according to the process of the invention) | percentage of polymorph B after storage ([4]; stored for 3 years at 25° C. and 60% relative humidity) | percentage of polymorph B after storage ([4]; stored for 6 months at 40° C. and 75% relative humidity) |
| --- | --- | --- | --- | --- | --- | --- |
| C[C@H](CSC(=O)c1ccccc1)C(=O)N1C[C@@H](Sc2ccccc2)C[C@H]1C(=O)O [polymorph A] | more resistant to compression and/or micronisation than polymorph B | could not be differentiated | still keeps the crystalline structure | – | – | – |
| C[C@H](CSC(=O)c1ccccc1)C(=O)N1C[C@@H](Sc2ccccc2)C[C@H]1C(=O)O [polymorph B] | – | could not be differentiated | completely loses its crystalline structure | – | – | – |
| C[C@H](CSC(=O)c1ccccc1)C(=O)N1C[C@@H](Sc2ccccc2)C[C@H]1C(=O)O [zofenopril calcium salt, [(4S)-(2S)-3-(benzoylthio)-2-methylpropionyl-4 (phenylthio)-L-proline] calcium salt] | – | – | – | no interconversion to polymorph B | below 7% | below 7% |
